In one experiment the test system is SW48. The experiment can be described thus: Compound was tested for its inhibitory effect on the growth of SW-48 tumor cell line from colon. Type of experiment: functional, cell-based. Particulars: Homo sapiens.
The subject of the next experiment is PANC-1. The experiment can be described thus: Compound was tested for its inhibitory effect on the growth of PANC-1 tumor cell line from pancreas. Type of experiment: functional, cell-based. Particulars: Homo sapiens.
Another experiment has as its system KKLS. The experiment can be described thus: Compound was tested for its inhibitory effect on the growth of KKLS tumor cell line from stomach. Particulars: Homo sapiens. In kind it is functional, cell-based.
In another experiment the test system is HCT-15. Kind of experiment: Compound was tested for its inhibitory effect on the growth of HCT-15 tumor cell line from colon. In kind it is functional, cell-based. Particulars: Homo sapiens.
The next experiment has as its system SNU-C2A. Kind of experiment: Compound was tested for its inhibitory effect on the growth of […] tumor cell line from colon. In kind it is functional, cell-based. The conditions noted are these: Homo sapiens.
The subject of experiment [1] is AZ-521 cell line. Kind of experiment: Compound was tested for its inhibitory effect on the growth of AZ-521 tumor cell line from stomach. Type of experiment: functional, cell-based. Particulars: Homo sapiens.
For a further experiment, the system named is COLO 320DM. The experiment can be described thus: Compound was tested for its inhibitory effect on the growth of COLO 320DM tumor cell line from colon. Type of experiment: functional, cell-based. Particulars: Homo sapiens.
A further experiment relates to NUGC-3. The experiment can be described thus: Compound was tested for its inhibitory effect on the growth of NUGC-3 tumor cell line from stomach. In kind it is functional, cell-based. The conditions noted are these: Homo sapiens.
For a further experiment, the system named is MKN-28. Kind of experiment: Compound was tested for its inhibitory effect on the growth of MKN-28 tumor cell line from stomach. Type of experiment: functional, cell-based. Particulars: Homo sapiens.
Experiment [2] relates to DLD-1. The experiment can be described thus: Compound was tested for its inhibitory effect on the growth of DLD-1 tumor cell line from colon. Type of experiment: functional, cell-based. The conditions noted are these: Homo sapiens.
The test system of the next experiment is A549. The experiment can be described thus: Compound was tested for its inhibitory effect on the growth of A-549 tumor cell line from lung. Type of experiment: functional, cell-based. Particulars: Homo sapiens.
The subject of another experiment is HT-1080. The experiment can be described thus: Compound was tested for its inhibitory effect on the growth of HT1080 sarcoma tumor cell line. In kind it is functional, cell-based. The conditions noted are these: Homo sapiens.
A further experiment deals with T-24. The experiment can be described thus: Compound was tested for its inhibitory effect on the growth of T24 tumor cell line from bladder. In kind it is functional, cell-based. The conditions noted are these: Homo sapiens.
The subject of a further experiment is MKN-45. Kind of experiment: Compound was tested for its inhibitory effect on the growth of MKN-45 tumor cell line from stomach. Particulars: Homo sapiens. In kind it is functional, cell-based.
In experiment [3] the test system is KM12. Kind of experiment: Compound was tested for its percentage inhibitory effect on the growth of KM12C tumor cell line from colon at an iv dose of 2 mg/kg x10. In kind it is functional, Homo sapiens.
Experiment [4] concerns AZ-521 cell line. The experiment can be described thus: Compound was tested for its percentage inhibitory effect on the growth of AZ-521 tumor cell line from stomach at an iv dose of 2 mg/kg x10. In kind it is functional, Homo sapiens.
Experiment [5] deals with BXPC-3. Kind of experiment: Compound was tested for its percentage inhibitory effect on the growth of BxPC-3 tumor cell line from […] at an iv dose of 2 mg/kg x10. In kind it is functional, Homo sapiens.
In experiment [6] the test system is PAM12. The experiment can be described thus: Compound was tested for its percentage inhibitory effect on the growth of PAN-12 tumor cell line from […] at an iv dose of 2 mg/kg x10. Type of experiment: functional, Homo sapiens.
The subject of experiment [7] is Co-3. Kind of experiment: Compound was tested for its percentage inhibitory effect on the growth of CO-3 tumor cell line from colon at an iv dose of 2 mg/kg x10. In kind it is functional, Homo sapiens.
Experiment [8] deals with DLD-1. The experiment can be described thus: Compound was tested for its percentage inhibitory effect on the growth of DLD-1 tumor cell line from colon at an iv dose of 2 mg/kg x10. Type of experiment: functional, Homo sapiens.
The test system of experiment [9] is H-81. Kind of experiment: Compound was tested for its percentage inhibitory effect on the growth of H-81 tumor cell line from stomach at an iv dose of 2 mg/kg x10. In kind it is functional, Homo sapiens.
The test system of experiment [10] is Co-3. Kind of experiment: Compound was tested for its percentage inhibitory effect on the growth of CO-3 tumor cell line from colon at an iv dose of 15 mg/kg x14. In kind it is functional, Homo sapiens.
Experiment [11] has as its system DLD-1. Kind of experiment: Compound was tested for its percentage inhibitory effect on the growth of DLD-1 tumor cell line from colon at an iv dose of 15 mg/kg x14. Type of experiment: functional, Homo sapiens.
In experiment [12] the test system is AZ-521 cell line. The experiment can be described thus: Compound was tested for its percentage inhibitory effect on the growth of AZ-521 tumor cell line from stomach at an iv dose of 2 mh/kg x10. Type of experiment: functional, Homo sapiens.
For experiment [13], the system named is BXPC-3. The experiment can be described thus: Compound was tested for its percentage inhibitory effect on the growth of BxPC-3 tumor cell line from […] at an iv dose of 15 mg/kg x14. In kind it is functional, Homo sapiens.
Experiment [14] relates to H-81. The experiment can be described thus: Compound was tested for its percentage inhibitory effect on the growth of H-81 tumor cell line from stomach at an iv dose of 15 mg/kg x14. Type of experiment: functional, Homo sapiens.
The test system of experiment [15] is PAM12. The experiment can be described thus: Compound was tested for its percentage inhibitory effect on the growth of PAN-12 tumor cell line from […] at an iv dose of 15 mg/kg x14. In kind it is functional, Homo sapiens.
For experiment [16], the system named is KM12. The experiment can be described thus: Compound was tested for its percentage inhibitory effect on the growth of KM12C tumor cell line from colon at an iv dose of 15 mg/kg x14. In kind it is functional, Homo sapiens.

Bounds are passed on as bounds.

Broadly, the IC50 is the concentration at which inhibition is half-maximal. Higher therefore signals lower potency. As for `O=c1[nH]c(=O)n([C@H]2C[C@H](O)[C@@H](CO)O2)cc1F` [FLOXURIDINE], the IC50 was 130 nM with SW48; over 40000 nM in the experiment with PANC-1; 760 nM with KKLS; 49 nM in the experiment on HCT-15; 3.3 nM in the experiment on SNU-C2A; 50 nM in the experiment on AZ-521 cell line [1]. In addition, the concentration for half-maximal inhibition (IC50) in the experiment with COLO 320DM turned out to be 650 nM; in the experiment on NUGC-3, 15 nM; in the experiment on MKN-28 it was 120 nM; in the experiment with DLD-1 [2] it was 92 nM; in the experiment on A549 it was 1000 nM; with HT-1080 it was 120 nM. Besides, the IC50 amounted to 120 nM with T-24 and 3500 nM in the experiment with MKN-45.
As to `O=c1[nH]c(=O)n([C@@H]2O[C@H](CO)[C@@H](O)[C@H]2O)cc1F` [5-FLUOROURIDINE], the IC50 in the experiment on SW48 was determined as 16 nM; in the experiment on PANC-1, 11000 nM; with KKLS, 16 nM; in the experiment with HCT-15, 47 nM; in the experiment on SNU-C2A, 45 nM; in the experiment with AZ-521 cell line [1] it was 50 nM. Moreover, the half-inhibitory concentration (IC50) is 5.4 nM in the experiment with COLO 320DM; 22 nM in the experiment with NUGC-3; 28 nM with MKN-28; 73 nM in the experiment with DLD-1 [2]; 1900 nM in the experiment on A549; 41 nM in the experiment on HT-1080. Besides, the IC50 in the experiment with T-24 came out at 14 nM; in the experiment on MKN-45, 26 nM.
Turning to `C#C[C@]1(O)[C@@H](CO)O[C@@H](n2ccc(=O)[nH]c2=O)[C@@H]1O`, the concentration for half-maximal inhibition (IC50) in the experiment on SW48 was 120 nM; in the experiment on PANC-1, 11000 nM; in the experiment on KKLS, 190 nM; in the experiment with HCT-15 it was 43 nM; with SNU-C2A, 18 nM; with AZ-521 cell line [1] it was 36 nM. Besides, the IC50 is 60 nM in the experiment with COLO 320DM; 34 nM in the experiment with NUGC-3; 80 nM with MKN-28; 66 nM in the experiment with DLD-1 [2]; 29 nM in the experiment with A549; 24 nM in the experiment with HT-1080. The 50% inhibitory concentration (IC50) with T-24 was found to be 34 nM; with MKN-45, 24 nM. For the same compound, the Tumor inhibition ratio in the experiment on KM12 [3] is given as 81%; with BXPC-3 [5] it was 35%; in the experiment on PAM12 [6], 81%; in the experiment with Co-3 [7], 90%; in the experiment on DLD-1 [8], 73%; in the experiment with H-81 [9] it was 92%. For the same compound, the Ratio with AZ-521 cell line [4] was found to be 81.
For `O=c1[nH]cc(F)c(=O)[nH]1` [FLUOROURACIL], the Tumor inhibition ratio with Co-3 [10] is reported as 49%; in the experiment on DLD-1 [11], 50%; in the experiment with AZ-521 cell line [12] it was 25%; with BXPC-3 [13], 50%; in the experiment with H-81 [14], 83%; in the experiment with PAM12 [15], 40%. Also, the Tumor inhibition ratio in the experiment on KM12 [16] amounted to 59%. Moreover, the IC50 with SW48 was 5700 nM; in the experiment with PANC-1, over 78000 nM; in the experiment with KKLS, 6200 nM; in the experiment with HCT-15, 5700 nM; with SNU-C2A, 2700 nM; in the experiment with AZ-521 cell line [1] it was 3900 nM. Further, the IC50 in the experiment on COLO 320DM came out at 1100 nM; with NUGC-3, 4400 nM; in the experiment with MKN-28, 2500 nM; with DLD-1 [2] it was 6000 nM; with A549 it was 1700 nM; with T-24, 22000 nM. For the same compound, in the experiment on MKN-45, 3000 nM corresponded to half-maximal inhibition (IC50).

For the origin of these results see ChEMBL document CHEMBL1129138, “Nucleosides and nucleotides. 152. 1-(3-C-Ethynyl--D-ribo-pentofuranosyl)uracil as a broad spectrum antitumor nucleoside” (Bioorg Med Chem Lett, 1996).
